In paper PMC5653232 (Cell reports, 2017):

Legend:
Format in all cases: binding
[1] = system: biotinylated histone peptides (residues 1–20 of H3); assay: Pull-down of GST-CHD3 PHDs with biotinylated histone H3 peptides, Western blot; conditions: blots overexposed to the same degree as PHD1/2; 2 h at 4 °C, pH 8.0
CHD3 PHD1/2 = assay: 1H,15N HSQC NMR titration, linked CHD3 PHD1/2; conditions: 15N-labelled PHD1/2, 298 K, H3 peptides aa 1–12
CHD3 PHD2 = CHD3 PHD2 (Homo sapiens, UniProt Q12873); assay: 1H,15N HSQC NMR titration, CHD3 PHD2; conditions: compared with unmodified H3; protein:peptide ratio 1:0.5; 298 K
CHD3 PHD1 = CHD3 PHD1 (Homo sapiens, UniProt Q12873); assay: 1H,15N HSQC NMR titration, CHD3 PHD1; conditions: compared with unmodified H3; protein:peptide ratio 1:0.5; 298 K

| effect of modification on binding by NMR CSPs, PHD2 (CHD3 PHD2) | effect of modification on binding by NMR CSPs, PHD1 (CHD3 PHD1) | Substance | pull-down association of individual PHD1 and PHD2 with histone peptides [1] | chemical shift perturbations, linked PHD1/2 (CHD3 PHD1/2) |
| --- | --- | --- | --- | --- |
| – | – | PHD1: PHD1 (373–427) of CHD3 (GYETDHQDYCEVCQQGGEIILCDTCPRAYHLVCLDPELDRAPEGKWSCPHCEKEG; left off: GST, end not stated, cleaved) | barely detectable | – |
| strong inhibitory effects | strong inhibitory effects | H3K4me3: histone H3 peptide (aa 1–12) with the K4me3 modification | – | CSPs consistent with a much weaker association |
| – | – | PHD2: PHD2 (454–508) of CHD3 (DHMEYCRVCKDGGELLCCDACISSYHIHCLNPPLPDIPNGEWLCPRCTCPVLKGR; left off: GST, end not stated, cleaved) | barely detectable | – |
